Assay [1] addresses AKT1 (Homo sapiens, UniProt P31749). Kind of assay: bio-layer interferometry (biotinylated active AKT1, Carna […]-101, on SSA sensor, Octet K2). It counts as binding. For orientation: In BLI a coated tip is dipped into the sample, and binding shifts an interference pattern.
Assay [2] deals with SRC (Homo sapiens, UniProt P12931). Kind of assay: bio-layer interferometry (biotinylated SRC on SSA sensor, Octet K2). It counts as binding.

Results on one compound are retold here after publication PMC11371790, “Combination of transcriptomic and proteomic approaches helps unravel the mechanisms of luteolin in inducing liver cancer cell death via targeting AKT1 and SRC” (Frontiers in Pharmacology, 2024).

pKd: −log10 of the molar value.

Chain of SRC (P12931 2-536): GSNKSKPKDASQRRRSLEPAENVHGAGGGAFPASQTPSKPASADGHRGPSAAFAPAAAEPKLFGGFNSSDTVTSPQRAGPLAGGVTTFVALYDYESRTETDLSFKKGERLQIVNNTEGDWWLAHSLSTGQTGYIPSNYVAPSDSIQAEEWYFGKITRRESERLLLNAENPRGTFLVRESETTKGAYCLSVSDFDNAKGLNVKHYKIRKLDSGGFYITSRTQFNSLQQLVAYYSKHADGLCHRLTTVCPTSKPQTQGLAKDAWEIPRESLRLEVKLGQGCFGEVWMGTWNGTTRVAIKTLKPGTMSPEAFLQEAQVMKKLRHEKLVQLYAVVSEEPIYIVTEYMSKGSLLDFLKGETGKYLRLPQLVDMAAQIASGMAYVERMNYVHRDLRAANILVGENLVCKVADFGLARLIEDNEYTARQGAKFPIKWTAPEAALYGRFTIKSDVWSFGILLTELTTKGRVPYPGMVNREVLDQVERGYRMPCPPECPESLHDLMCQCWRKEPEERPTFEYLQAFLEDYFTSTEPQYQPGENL
Chain of AKT1 (P31749 whole entry): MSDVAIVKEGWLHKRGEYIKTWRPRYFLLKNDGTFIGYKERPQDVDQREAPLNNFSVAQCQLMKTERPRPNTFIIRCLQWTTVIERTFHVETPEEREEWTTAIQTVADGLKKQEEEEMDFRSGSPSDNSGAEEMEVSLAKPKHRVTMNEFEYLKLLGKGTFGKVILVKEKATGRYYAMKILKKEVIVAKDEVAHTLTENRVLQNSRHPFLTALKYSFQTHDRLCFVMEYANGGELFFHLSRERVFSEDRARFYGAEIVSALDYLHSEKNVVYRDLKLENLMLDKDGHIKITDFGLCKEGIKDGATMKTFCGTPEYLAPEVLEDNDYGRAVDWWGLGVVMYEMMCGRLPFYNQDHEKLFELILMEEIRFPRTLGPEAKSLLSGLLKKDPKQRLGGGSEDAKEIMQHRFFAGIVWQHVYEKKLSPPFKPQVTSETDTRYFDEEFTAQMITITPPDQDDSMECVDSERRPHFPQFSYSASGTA

With `O=c1cc(-c2ccc(O)c(O)c2)oc2cc(O)cc(O)c12` [Luteolin], the pKd in assay [1] was 5.10; in assay [2] it was 5.77.

In general, pKd refers to the Kd on a negative log10 scale, so that one unit is a factor of ten.
